Entries after “also recorded” stand apart in the source; their conditions may differ.
Experiments:
PFKFB3 = PFKFB3 (Homo sapiens, UniProt Q16875); experiment: ADP-Glo kinase activity assay, PFKFB3; format: biochemical; settings: in vitro enzymatic assay
Experimental: The kinase activity of the bi-functional enzyme was quantified based on the production of ADP and F-2,6-P2 from ATP by ADP-GloTM Kinase Assay (Promega). The assay was performed in two steps; first, after the kinase reaction, an equal volume of ADP-GloTM Reagent was added to terminate the kinase reaction and deplete the remaining ATP. Second, the Kinase Detection Reagent was added to simultaneously convert ADP to ATP and allow the newly synthesized ATP to be measured using a luciferase/luciferin reaction. The light generated was measured using a luminescence counter (1450 MicroBeta TriLux). The assay was performed in white 384-well plates (OptiPlate, 6007299, PerkinElmer) by consecutive additions of a test compound solution (0.1 µL, serial diluted in DMSO from compound DMSO stock solution and dispensed by acoustic dispensing from UV-star 384-well plate 7360153, VWR), enzyme solution (5 µL) and substrate (fructose-6-phosphate (F6P) and adenosine-5′-triphosphate (ATP)) containing solution (5 µL). […] Four reference dose–response curves, one of them being the QC compound, were included and serial diluted as the test compounds. The final concentrations of all reagents per well were 50 mM Tris–HCl at pH 8.0, 10 mM MgCl2, 5 mM NaPi at pH 8.0, 81.48 nM PFKFB3 or 145 nM PFKFB4, 8 µM ATP, 100 µM F6P (acid treated and then neutralized to remove any contaminating F-2,6-P2[34]), 0.005% Tween-20 and 1 mM dithiothreitol. Enzyme, compounds, and controls were pre-incubated at room temperature for 15 min before the addition of substrate solution. The enzymatic reaction was allowed to proceed for 20 min and the reaction was terminated by the addition of ADP-GloTM Reagent (10 µL) to all wells followed by 40 min incubation at room temperature. […] The inhibitory potency or IC50 values of test compounds on the kinase activity of the enzymes were calculated using a four-parameter model (model 205) in XLfit (IDBS ActivityBase XE Runner).

U2OS cells [1] = experiment: IR-induced RAD51 / RPA32 foci, confocal; format: cell-based; settings: in combination with IR
Experimental: (§1) Cells were grown on sterilized coverslips and fixed with 4% paraformaldehyde (PFA) (Santa Cruz) and 2% sucrose (Sigma Aldrich) for 15 min at room temperature. They were then permeabilized with 0.2% NP-40 (Thermo Scientific) for 10 min at room temperature followed by 30 min of blocking in blocking buffer (2 or 3% BSA, 5% glycerol, 0.1% Tween 20 (Sigma Aldrich)). Coverslips were subsequently incubated for 1, 2, or 24 h in primary antibody and 40 min in secondary antibody diluted in blocking buffer, DNA was stained with DAPI for 10 min. The coverslips were mounted with Prolonged Gold mounting medium (Invitrogen). Images were acquired with a Zeiss LSM 780 microscope using a 40× or 63× oil immersion lens and processed in ImageJ and CellProfiler.
To visualize PFKFB3, RPA32, RAD51, BRCA1, 53BP1, and RRM2 IRIF, the cells were first washed with PBS and then incubated for 5 min at room temperature with cytoskeleton (CSK) buffer containing 10 mM PIPES pH 7.0 (Sigma Aldrich), 100 mM NaCl (EMD Millipore), 300 mM sucrose (Sigma Aldrich), 3 mM MgCl2 (Sigma Aldrich), and 0.7% Triton X-100 (Sigma Aldrich). After these treatments, the cells were washed once again with PBS and then fixed in 4% PFA with 2% sucrose.

U2OS DR-GFP cells = experiment: DR-GFP (HR) assay; format: cell-based
Experimental: 5 × 10^4 U2OS (DR-GFP) cells were seeded into 12-well plates, 24 h later cells were treated with the indicated siRNAs or inhibitors and, 24 h later, transfected with 150 ng of an I-SceI vector using JetPEI or JetPRIME (Polyplus transfections). The next day, the medium was changed; 24 h after this, cells were harvested by trypsinization and washed with PBS, and the GFP signal was measured by flow cytometry on a FACS Navios (as described above). The frequency of repair in cells treated with inhibitors or transfected with the various siRNAs was calculated relative to cells treated with DMSO or transfected with control siRNA.

U2OS cells [2] = experiment: Cell cycle analysis (propidium iodide, flow cytometry); format: cell-based; settings: 24 h post-IR
Experimental: For cell cycle analysis, cells were treated or transfected with siRNA as described and harvested at the indicated time points with trypsin. For studies using IR, cells were exposed to IR with 2 Gy, and harvested at the indicated time points with trypsin. The cells were washed in PBS and fixed with 70% ethanol in PBS at 4 °C for 1 h and then stored at −20 °C until staining. Ethanol was removed by centrifugation and cells were then washed in PBS before staining DNA with propidium iodide (PI) solution containing 40 μg/mL PI, 100 μg/mL RNase A, and 0.1% Triton X-100 (Sigma Aldrich). Cells were analyzed by flow cytometry on a FACS Navios (Beckman Coulter) using Kaluza software.

U2OS cells [3] = experiment: IR-induced nuclear recruitment of PFKFB3; format: cell-based; settings: 2 h prior to IR
Experimental: as §1

U2OS cells [4] = experiment: IR-induced Mre11 / Nbs1 foci formation; format: cell-based; settings: treatment prior to IR (6 Gy, 2 h recovery)
Experimental: as §1

PFKFB3, sequence (Q16875 whole entry): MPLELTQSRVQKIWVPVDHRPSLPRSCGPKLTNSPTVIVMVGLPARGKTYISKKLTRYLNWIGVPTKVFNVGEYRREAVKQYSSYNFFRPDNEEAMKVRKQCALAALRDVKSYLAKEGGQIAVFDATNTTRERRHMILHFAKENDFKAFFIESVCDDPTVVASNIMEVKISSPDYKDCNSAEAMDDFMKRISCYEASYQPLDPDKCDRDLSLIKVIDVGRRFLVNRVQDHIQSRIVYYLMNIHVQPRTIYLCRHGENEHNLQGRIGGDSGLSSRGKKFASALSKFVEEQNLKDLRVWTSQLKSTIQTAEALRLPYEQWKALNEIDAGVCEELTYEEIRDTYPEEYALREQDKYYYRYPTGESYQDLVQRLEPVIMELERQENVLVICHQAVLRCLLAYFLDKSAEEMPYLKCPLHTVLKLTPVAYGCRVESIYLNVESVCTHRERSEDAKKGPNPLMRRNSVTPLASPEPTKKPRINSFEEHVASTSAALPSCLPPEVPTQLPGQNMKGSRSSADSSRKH

Row | inhibition of recombinant PFKFB3 kinase activity (in words) (PFKFB3) | SMILES | IR-induced recruitment of RPA32 and RAD51 into repair foci (in words) (U2OS cells [1]) | effect on HR activity (in words) (U2OS DR-GFP cells) | accumulation of cells in G2/M phase upon IR (in words) (U2OS cells [2]) | IR-induced recruitment of PFKFB3 (in words) (U2OS cells [3]) | IR-induced Mre11 or Nbs1 foci formation (in words) (U2OS cells [4])
1 | could not achieve an IC50 value | O=C(C=Cc1cccnc1)c1ccncc1 [3-PO, 3-(3-pyridinyl)-1-(4-pyridinyl)-2-propen-1-one, reference compound] | unaffected | did not decrease HR activity; also recorded: without affecting HR activity | not seen |  | 
2 |  | N=C1NC(=O)/C(=C/c2ccc(O)cc2)S1 [Mirin, reference compound] |  |  |  | blocked | completely blocked
